Experimental data taken from patent publication US5169858A, “Anti-tumor compositions containing the reactive product of benzaldehyde or salicylaldehyde with penicillamine and method of use thereof” (priority 1986, dated 1992).

What was measured:
[1] = system: tumor; details: literature / other patent (Kochi et al.; U.S. Pat. No. 4,762,705); cited from earlier work
[2] = Terol et al publication; cited from earlier work
[3] = Water solubility of free compound and copper chelates; type: physicochemical; details: stated in the description, no test described
[4] = Terol et al publication; species and route not given; cited from earlier work
[5] = system: mouse melanoma cells; experiment: Subcutaneous mouse melanoma, treatment from palpable tumor, 33 mg/kg orally every day; type: in vivo, black mice; details: 33 mg/kg every day by oral intubation
Procedure: (§1) Thirty-seven black mice were divided into two groups. Group I had 18 mice and was the control group. Group II had 19 mice and was the treated group. Each mouse was innoculated with 100,000 mouse melanoma cells subcutaneously. After the tumor was palpable (after about a week) the control group received saline orally. The treated group got 33 mg/kg of 5,5-dimethyl-2-phenyl-4-thiazolidine carboxylic acid every day by oral intubation. All of the control group died within an average of twenty-three days. The treated group started dying at day 50. The last mouse of the treated group died on day 70. The treated group died from day 50 on at the rate of about one mouse per day. […] Two mice in the treated group survived cured. The tumor disappeared in the two cured mice.

[6] = system: mouse melanoma cells; type: in vivo, black mice
Procedure: as §1
The same experiment was repeated with 20 control mice and 20 mice in the treated group, employing doses of 5,5-dimethyl-2-phenyl-4-thiazolidine carboxylic acid at 100 mg/kg. The treatment began about one day after innoculation. The control group died at the same time as the control group in the previous experiment. […] Five of the treated mice died between the 7th and 9th day. The reasons for these deaths are unclear, but it is presumed that they were asphyxiated by intubation.

SMILES | anti-tumor activity [1] | effect as a radio-protectant agent [2] | water solubility [3] | LD50 [4] [mg/kg] | tumor development compared with control group [5] | day of death of last mouse of treated group ([5]; 19 treated mice) [days] | mice in treated group that survived cured (tumor disappeared) ([5]; 19 treated mice) | day on which treated group started dying ([5]; 19 treated mice, control died within an average of twenty-three days) [days] | palpable tumors developed in treated group ([6]; 100 mg/kg, treatment began about one day after inoculation, 20 treated mice) | day of death of the five treated mice ([6]; mouse, in vivo) [days] | treated mice that died between the 7th and 9th day ([6]; mouse, in vivo)
O=Cc1ccccc1 [benzaldehyde] | has been shown to have anti-tumor activity | – | – | – | – | – | – | – | – | – | –
CC1(C)SC(c2ccccc2)NC1C(=O)O (stereo not drawn) [5,5-dimethyl-2-phenyl-4-thiazolidine carboxylic acid] | – | absolutely no effect whatsoever | water-soluble | 1200 | developed slower than the tumors in the control group | 70 | Two | 50 | no palpable tumors | 7 to 9 | Five
CC(C)(S)[C@@H](N)C(=O)O [penicillamine, dimethylcysteine] | has anti-tumor activity | – | – | – | – | – | – | – | – | – | –
